Assay results reported in US4273782A, “Inhibition of thromboxane synthetase by 3-(1-Imidazolylalkyl) indoles” (Pfizer Inc., priority 1979, dated 1981).
Structures can show the parent of a compound that is named as a salt.

Key:
prostacyclin synthetase [1] = target: T1, prostacyclin synthetase (Sus scrofa, UniProt A0A5G2QT35); conditions: pre-incubation of the enzyme; cited from earlier work
T1 construct: Pig aorta microsomes; from tissue; host or cells: pig aorta (microsomes)
T1 sequence (A0A5G2QT35 1-497): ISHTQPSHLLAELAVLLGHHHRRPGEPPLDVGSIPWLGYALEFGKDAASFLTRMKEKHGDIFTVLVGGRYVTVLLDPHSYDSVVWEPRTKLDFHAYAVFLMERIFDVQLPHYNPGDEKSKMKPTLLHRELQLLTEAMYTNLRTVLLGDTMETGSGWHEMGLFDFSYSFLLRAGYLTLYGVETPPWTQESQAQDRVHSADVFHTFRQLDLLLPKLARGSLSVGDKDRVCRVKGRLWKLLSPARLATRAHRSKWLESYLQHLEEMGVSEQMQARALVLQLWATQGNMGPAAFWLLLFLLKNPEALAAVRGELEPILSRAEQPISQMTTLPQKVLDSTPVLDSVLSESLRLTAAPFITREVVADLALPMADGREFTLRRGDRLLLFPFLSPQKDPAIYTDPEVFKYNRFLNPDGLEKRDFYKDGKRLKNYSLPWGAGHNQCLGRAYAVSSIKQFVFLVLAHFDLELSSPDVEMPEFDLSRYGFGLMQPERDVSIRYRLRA

thromboxane synthetase = target: T2, thromboxane synthetase (Homo sapiens, UniProt P24557); test: Thromboxane A2 (TxA2) synthetase inhibition, human platelet microsomes, rabbit aorta bioassay; type: biochemical; conditions: test compound pre-incubated with enzyme for 5 minutes, read-out: Molar concentration causing 50% inhibition of thromboxane synthetase
T2 construct: human platelet microsomes; from tissue; host or cells: human blood platelets (microsomes, indomethacin pre-treated)
T2 sequence (P24557 1-533): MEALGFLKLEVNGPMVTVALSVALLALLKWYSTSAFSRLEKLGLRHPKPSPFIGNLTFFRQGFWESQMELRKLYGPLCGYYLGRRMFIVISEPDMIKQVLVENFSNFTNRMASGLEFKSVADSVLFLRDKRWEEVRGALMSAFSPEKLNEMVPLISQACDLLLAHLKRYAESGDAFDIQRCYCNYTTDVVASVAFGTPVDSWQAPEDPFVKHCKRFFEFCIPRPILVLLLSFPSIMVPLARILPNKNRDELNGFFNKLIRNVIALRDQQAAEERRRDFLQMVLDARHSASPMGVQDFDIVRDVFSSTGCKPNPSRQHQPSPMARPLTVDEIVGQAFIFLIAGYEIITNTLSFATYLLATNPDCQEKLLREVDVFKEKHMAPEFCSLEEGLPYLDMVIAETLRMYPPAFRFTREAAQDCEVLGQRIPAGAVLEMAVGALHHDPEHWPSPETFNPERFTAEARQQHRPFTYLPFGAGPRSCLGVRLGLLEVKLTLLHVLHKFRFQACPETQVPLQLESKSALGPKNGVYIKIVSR
Experimental: 3. Thromboxane A2 (TxA2) Synthetase
Indomethacin pre-treated human platelet microsomes (Science, 1976, 193, 163) are incubated (2 min.: 0° C.) with PGH2 (produced as in 1) and aliquots of the reaction mixture superfused over two rabbit aorta spirals which are separated by a delay coil (2 min.). The latter is required to allow the selective decay of the more unstable thromboxane A2 (Proc. Nat. Acad. Sci., 1975, 72, 2994) thereby enabling the separate measurement of increased isometric tension due to the TxA2 formed and the PGH2 remaining. The test compound is pre-incubated with enzyme for 5 minutes, and its ability to inhibit the thromboxane synthetase enzyme is measured as its reduction of the TxA2 component of the isometric tension.

prostacyclin synthetase [2] = target: T1, prostacyclin synthetase; test: Prostacyclin (PGI2) synthetase inhibition, pig aorta microsomes, rabbit aorta bioassay; type: biochemical; conditions: test compound pre-incubated with enzyme for 5 minutes, read-out: Molar concentration causing 50% inhibition of prostacyclin synthetase
Experimental: The effect of the compounds of the formula (I) on the thromboxane synthetase enzyme, and the prostacyclin synthetase and cyclooxygenase enzymes has been measured by the following in vitro enzyme assays:
2. Prostacyclin (PGI2) Synthetase
Pig aorta microsomes (Nature, 1976, 263, 663) are incubated (30 sec.: 22° C.) with PGH2 produced as in 1) and aliquots bio-assayed as in 1. […] The test compound is then pre-incubated with the enzyme for 5 minutes, and its ability to prevent the decrease in tension is measured.
The results of these tests are shown in the following Table, which gives the molar concentration of each compound which caused a 50% change in the effect of the relevant enzyme on isometric tension, i.e. caused a 50% inhibition of the action of that enzyme.

cyclo-oxygenase enzyme = conditions: cited from earlier work
[3] = tested on: human blood platelet aggregation; conditions: human blood platelets; cited from earlier work
[4] = rabbit; intravenous arachidonic acid; cited from earlier work
aggregation of platelets = conditions: rat, abdominal aorta; cited from earlier work

IC50 (thromboxane synthetase) [nM] | IC50 (prostacyclin synthetase [2]) [nM] | Molecule | other results
 |  | 15-hydroxy-arachidonic acid | prevention of the decrease in PGH2-induced tension (selective PGI2 synthetase inhibitor) (prostacyclin synthetase [1]): prevented completely
18 | 24000 | N#CCCn1cc(Cn2ccnc2)c2ccccc21 [Example 1, 1-(2-Cyanoethyl)-3-(1-imidazolylmethyl)indole fumarate] | 
4.8 | 2200 | N#Cc1ccc(Cn2cc(Cn3ccnc3)c3ccccc32)cc1 [Example 4, 1-(4-Cyanobenzyl)-3-(1-imidazolylmethyl)indole] | 
0.16 | > 100000 | CCOC(=O)c1ccc(Cn2cc(Cn3ccnc3)c3ccccc32)cc1 [Example 7, 1-(4-Ethoxycarbonylbenzyl)-3-(1-imidazolylmethyl)indole hemi-fumarate] | 
12 | > 100000 | CCOC(=O)Cn1cc(Cn2ccnc2)c2ccccc21 [Example 10, 1-Ethoxycarbonylmethyl-3-(1-imidazolylmethyl)indole] | 
0.04 | > 100000 | O=C(O)CCn1cc(Cn2ccnc2)c2ccccc21 [Example 11, 1-(2-Carboxyethyl)-3-(1-imidazolylmethyl)indole fumarate monohydrate] | 
2 | 100000 | CC(C)c1c(Cn2ccnc2)c2ccccc2n1CCC(=O)O [Example 13] | 
0.037 | 40000 | O=C(O)CCn1c(C2CC2)c(Cn2ccnc2)c2ccccc21 [Example 14, 1-carboxyethyl-2-cyclopropyl-3-(1-imidazolylmethyl)indole] | 
 | > 100000 | O=C(O)CCn1cc(Cn2ccnc2)c2cc(Br)ccc21 [Example 20, 5-bromo-1-(2-carboxyethyl)-3-(1-imidazolylmethyl)indole] | 
0.8 | > 100000 | O=C(O)Cn1cc(Cn2ccnc2)c2ccccc21 [Example 23, 1-Carboxymethyl-3-(1-imidazolylmethyl)indole] | 
0.16 | > 100000 | O=C(O)c1ccc(Cn2cc(Cn3ccnc3)c3ccccc32)cc1 [Example 24, 1-(4-Carboxybenzyl)-3-(1-imidazolylmethyl)indole] | 
2.4 | > 100000 | O=C(O)c1cccc(Cn2cc(Cn3ccnc3)c3ccccc32)c1 [Example 25, 1-(3-Carboxybenzyl)-3-(1-imidazolylmethyl)indole] | 
140 | 100000 | NC(=O)Cn1cc(Cn2ccnc2)c2ccccc21 [Example 27, 1-Carbamoylmethyl-3-(1-imidazolylmethyl)indole] | 
6 | 70000 | CC(C)c1c(Cn2ccnc2)c2ccccc2n1CCC(N)=O [Example 28, 1-(2-Carbamoylethyl)-2-isopropyl-3-(1-imidazolylmethyl)indole] | 
130 |  | NC(=O)c1ccc(Cn2cc(Cn3ccnc3)c3ccccc32)cc1 [Example 38, 1-(4-Carbamoylbenzyl)-3-(1-imidazolylmethyl)indole] | 
0.034 | 45000 | c1ccc2c(c1)c(Cn1ccnc1)cn2CCc1nnn[nH]1 [Example 42, 1-[2-(5-Tetrazolyl)ethyl]-3-(1-imidazolylmethyl)indole] | 
2.1 |  | CNC(=O)NCCCn1cc(Cn2ccnc2)c2ccccc21 [Example 46, N-Methyl-N'-[3-[3-(imidazol-1-ylmethyl)indol-1-yl]propyl]urea] | 
5.5 | 40000 | O=C(NCCCn1cc(Cn2ccnc2)c2ccccc21)Nc1ccccc1 [Example 47, N-Phenyl-N'-[3-[3-(imidazol-1-ylmethyl)indol-1-yl]propyl]urea] | 
1 | 100000 | O=S(=O)(NCCCn1cc(Cn2ccnc2)c2ccccc21)c1ccccc1 [Example 48, 1-(3-Benzenesulphonylaminopropyl)-3-(1-imidazolylmethyl)indole] | 
 |  | CC(=O)Oc1ccccc1C(=O)O [aspirin] | effect on prostacyclin and thromboxane A2 levels (cyclo-oxygenase enzyme): reduce both the prostacyclin and thromboxane A2 levels; inhibition of the cyclo-oxygenase enzyme (cyclo-oxygenase enzyme): inhibit the cyclo-oxygenase enzyme; inhibitory activity in vitro against a variety of aggregating agents [3]: show inhibitory activity in vitro; protection from the lethal effect of arachidonic acid injection [4]: protect the rabbit from the lethal effect of the injection
 |  | O=C1C(CC[S+]([O-])c2ccccc2)C(=O)N(c2ccccc2)N1c1ccccc1 (centres unmarked) [sulphinpyrazone] | inhibitory activity in vitro against a variety of aggregating agents [3]: show inhibitory activity in vitro; protection from the lethal effect of arachidonic acid injection [4]: protect the rabbit from the lethal effect of the injection; prevention of aggregation of platelets in an extra corporeal loop (aggregation of platelets): prevent the aggregation of platelets
